Reference: US11691980B2, “Liphagal analog and multi-targeted kinase inhibitor containing liphagal or analog thereof” (TOHOKU UNIVERSITY, priority 2017, dated 2023)

What was measured:
Format in all cases: biochemical
TSSK3 = biological target: T1, TSSK3 (Homo sapiens, UniProt Q96PN8); experiment: mobility shift assay
T1 construct: purchased Carna Biosciences

MST3 = biological target: T2, MST3 (Homo sapiens, UniProt Q9Y6E0); experiment: mobility shift assay
T2 construct: purchased Carna Biosciences

CaMK1δ = biological target: T3, CaMK1δ (Homo sapiens, UniProt Q8IU85); experiment: mobility shift assay
T3 construct: purchased Carna Biosciences

AurA = biological target: T4, AurA (Homo sapiens, UniProt O14965); experiment: mobility shift assay
T4 construct: purchased Carna Biosciences

CaMK4 = biological target: T5, CaMK4 (Homo sapiens, UniProt Q16566); experiment: mobility shift assay
T5 construct: purchased Carna Biosciences

PIM 1 = biological target: T6, PIM 1 (Homo sapiens, UniProt P11309); experiment: mobility shift assay
T6 construct: purchased Carna Biosciences

MAP3K3_Cascade = experiment: mobility shift assay; conditions: 10 μM
FER = biological target: T7, FER (Homo sapiens, UniProt P16591); experiment: mobility shift assay
T7 construct: purchased Carna Biosciences

MAP3K5_Cascade = biological target: T8, MAP3K5_Cascade (Homo sapiens, UniProt Q99683); experiment: mobility shift assay
T8 construct: purchased Carna Biosciences

RSK1 = biological target: T9, RSK1 (Homo sapiens, UniProt Q15418); experiment: mobility shift assay
T9 construct: purchased Carna Biosciences

CDC2/CycB1 = biological target: T10, CDC2/CycB1 (Homo sapiens, UniProt P06493); experiment: mobility shift assay
T10 construct: purchased Carna Biosciences

CHK2 = biological target: T11, CHK2 (Homo sapiens, UniProt O96017); experiment: mobility shift assay
T11 construct: purchased Carna Biosciences

MAP3K1_Cascade = biological target: T12, MAP3K1_Cascade (Homo sapiens, UniProt Q13233); experiment: mobility shift assay
T12 construct: purchased Carna Biosciences

MLK3_Cascade = biological target: T13, MLK3_Cascade (Homo sapiens, UniProt Q16584); experiment: mobility shift assay
T13 construct: purchased Carna Biosciences

KIT(V560G) = biological target: T14, KIT(V560G) (Homo sapiens, UniProt P10721, V560G); experiment: mobility shift assay
T14 construct: purchased Carna Biosciences

SPHK2 = biological target: T15, SPHK2 (Homo sapiens, UniProt Q9NRA0); experiment: mobility shift assay
T15 construct: purchased Carna Biosciences

WNK1 = biological target: T16, WNK1 (Homo sapiens, UniProt Q9H4A3); experiment: mobility shift assay
T16 construct: purchased Carna Biosciences

MRCKα = biological target: T17, MRCKα (Homo sapiens, UniProt Q5VT25); experiment: mobility shift assay
T17 construct: purchased Carna Biosciences

TAK1-TAB1_Cascade = biological target: T18, TAK1-TAB1_Cascade (Homo sapiens, UniProt O43318); experiment: mobility shift assay
T18 construct: purchased Carna Biosciences

AurA/TPX2 = biological target: T19, AurA/TPX2 (Homo sapiens, UniProt O14965); experiment: mobility shift assay
T19 construct: purchased Carna Biosciences

JNK2 = biological target: T20, JNK2 (Homo sapiens, UniProt P45984); experiment: mobility shift assay
T20 construct: purchased Carna Biosciences

RET = biological target: T21, RET (Homo sapiens, UniProt P07949); experiment: mobility shift assay
T21 construct: purchased Carna Biosciences

FTI1 = biological target: T22, FTI1 (Homo sapiens, UniProt P17948); experiment: mobility shift assay
T22 construct: purchased Carna Biosciences

SRPK2 = biological target: T23, SRPK2 (Homo sapiens, UniProt P78362); experiment: mobility shift assay
T23 construct: purchased Carna Biosciences

FGR = biological target: T24, FGR (Homo sapiens, UniProt P09769); experiment: mobility shift assay
T24 construct: purchased Carna Biosciences

RON = biological target: T25, RON (Homo sapiens, UniProt Q04912); experiment: mobility shift assay
T25 construct: purchased Carna Biosciences

CDK2/CycE1 = biological target: T26, CDK2/CycE1 (Homo sapiens, UniProt P24941); experiment: mobility shift assay
T26 construct: purchased Carna Biosciences

BMX = biological target: T27, BMX (Homo sapiens, UniProt P51813); experiment: mobility shift assay
T27 construct: purchased Carna Biosciences

KIT(D816Y) = biological target: T28, KIT(D816Y) (Homo sapiens, UniProt P10721, D816Y); experiment: mobility shift assay
T28 construct: purchased Carna Biosciences

MAP2K7_Cascade = biological target: T29, MAP2K7_Cascade (Homo sapiens, UniProt O14733); experiment: mobility shift assay
T29 construct: purchased Carna Biosciences

AKT3 = biological target: T30, AKT3 (Homo sapiens, UniProt Q9Y243); experiment: mobility shift assay
T30 construct: purchased Carna Biosciences

CK1y1 = biological target: T31, CK1y1 (Homo sapiens, UniProt Q9HCP0); experiment: mobility shift assay
T31 construct: purchased Carna Biosciences

EPHA5 = biological target: T32, EPHA5 (Homo sapiens, UniProt P54756); experiment: mobility shift assay
T32 construct: purchased Carna Biosciences

PKCδ = biological target: T33, PKCδ (Homo sapiens, UniProt Q05655); experiment: mobility shift assay
T33 construct: purchased Carna Biosciences

IRAK1 = biological target: T34, IRAK1 (Homo sapiens, UniProt P51617); experiment: IMAP Assay
T34 construct: purchased Carna Biosciences

EGFR(T790/L858R) = biological target: T35, EGFR(T790/L858R) (Homo sapiens, UniProt P00533, L858R/T790M); experiment: mobility shift assay
T35 construct: purchased Carna Biosciences

PAK5 = biological target: T36, PAK5 (Homo sapiens, UniProt Q9P286); experiment: mobility shift assay
T36 construct: purchased Carna Biosciences

MARK3 = biological target: T37, MARK3 (Homo sapiens, UniProt P27448); experiment: mobility shift assay
T37 construct: purchased Carna Biosciences

KKε = biological target: T38, KKε (Homo sapiens, UniProt Q14164); experiment: mobility shift assay
T38 construct: purchased Carna Biosciences

FGFR2 = biological target: T39, FGFR2 (Homo sapiens, UniProt P21802); experiment: mobility shift assay
T39 construct: purchased Carna Biosciences

MSK2 = biological target: T40, MSK2 (Homo sapiens, UniProt O75676); experiment: mobility shift assay
T40 construct: purchased Carna Biosciences

PKCβ1 = biological target: T41, PKCβ1 (Homo sapiens, UniProt P05771); experiment: mobility shift assay
T41 construct: purchased Carna Biosciences

T1 sequence (Q96PN8 whole entry): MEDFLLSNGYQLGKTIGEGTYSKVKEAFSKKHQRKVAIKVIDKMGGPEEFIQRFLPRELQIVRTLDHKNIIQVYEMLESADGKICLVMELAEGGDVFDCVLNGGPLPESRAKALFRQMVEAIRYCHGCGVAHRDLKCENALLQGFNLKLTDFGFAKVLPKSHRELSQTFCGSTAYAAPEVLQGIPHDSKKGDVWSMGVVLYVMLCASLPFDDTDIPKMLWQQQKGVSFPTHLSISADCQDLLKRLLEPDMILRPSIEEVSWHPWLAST
T6 sequence (P11309 whole entry): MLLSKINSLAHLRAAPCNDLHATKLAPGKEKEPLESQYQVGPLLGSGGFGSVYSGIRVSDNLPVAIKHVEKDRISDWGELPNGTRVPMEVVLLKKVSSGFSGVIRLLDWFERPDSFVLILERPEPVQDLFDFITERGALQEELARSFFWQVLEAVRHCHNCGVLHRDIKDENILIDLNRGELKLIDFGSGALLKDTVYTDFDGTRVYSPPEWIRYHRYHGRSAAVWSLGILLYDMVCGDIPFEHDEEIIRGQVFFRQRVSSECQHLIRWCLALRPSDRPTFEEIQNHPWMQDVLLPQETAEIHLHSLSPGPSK
T33 sequence (Q05655 whole entry): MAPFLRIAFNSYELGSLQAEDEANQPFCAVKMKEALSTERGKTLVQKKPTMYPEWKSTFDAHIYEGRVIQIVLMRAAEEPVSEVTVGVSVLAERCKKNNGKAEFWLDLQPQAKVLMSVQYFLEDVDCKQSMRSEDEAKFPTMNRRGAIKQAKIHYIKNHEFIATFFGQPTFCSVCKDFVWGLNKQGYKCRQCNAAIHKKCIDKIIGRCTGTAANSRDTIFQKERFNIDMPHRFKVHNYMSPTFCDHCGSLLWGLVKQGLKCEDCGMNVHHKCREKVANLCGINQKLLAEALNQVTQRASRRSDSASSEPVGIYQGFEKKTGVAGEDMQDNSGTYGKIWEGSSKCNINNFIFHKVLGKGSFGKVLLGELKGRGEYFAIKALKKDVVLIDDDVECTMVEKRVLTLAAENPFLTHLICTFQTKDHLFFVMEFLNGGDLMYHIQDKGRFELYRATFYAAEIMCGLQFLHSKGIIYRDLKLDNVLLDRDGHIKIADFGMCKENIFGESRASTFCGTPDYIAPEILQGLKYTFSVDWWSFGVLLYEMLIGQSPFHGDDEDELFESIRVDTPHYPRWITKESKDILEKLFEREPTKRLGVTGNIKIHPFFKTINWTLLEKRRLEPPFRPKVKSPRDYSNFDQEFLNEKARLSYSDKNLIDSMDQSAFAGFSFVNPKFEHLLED
T16 sequence (Q9H4A3 whole entry): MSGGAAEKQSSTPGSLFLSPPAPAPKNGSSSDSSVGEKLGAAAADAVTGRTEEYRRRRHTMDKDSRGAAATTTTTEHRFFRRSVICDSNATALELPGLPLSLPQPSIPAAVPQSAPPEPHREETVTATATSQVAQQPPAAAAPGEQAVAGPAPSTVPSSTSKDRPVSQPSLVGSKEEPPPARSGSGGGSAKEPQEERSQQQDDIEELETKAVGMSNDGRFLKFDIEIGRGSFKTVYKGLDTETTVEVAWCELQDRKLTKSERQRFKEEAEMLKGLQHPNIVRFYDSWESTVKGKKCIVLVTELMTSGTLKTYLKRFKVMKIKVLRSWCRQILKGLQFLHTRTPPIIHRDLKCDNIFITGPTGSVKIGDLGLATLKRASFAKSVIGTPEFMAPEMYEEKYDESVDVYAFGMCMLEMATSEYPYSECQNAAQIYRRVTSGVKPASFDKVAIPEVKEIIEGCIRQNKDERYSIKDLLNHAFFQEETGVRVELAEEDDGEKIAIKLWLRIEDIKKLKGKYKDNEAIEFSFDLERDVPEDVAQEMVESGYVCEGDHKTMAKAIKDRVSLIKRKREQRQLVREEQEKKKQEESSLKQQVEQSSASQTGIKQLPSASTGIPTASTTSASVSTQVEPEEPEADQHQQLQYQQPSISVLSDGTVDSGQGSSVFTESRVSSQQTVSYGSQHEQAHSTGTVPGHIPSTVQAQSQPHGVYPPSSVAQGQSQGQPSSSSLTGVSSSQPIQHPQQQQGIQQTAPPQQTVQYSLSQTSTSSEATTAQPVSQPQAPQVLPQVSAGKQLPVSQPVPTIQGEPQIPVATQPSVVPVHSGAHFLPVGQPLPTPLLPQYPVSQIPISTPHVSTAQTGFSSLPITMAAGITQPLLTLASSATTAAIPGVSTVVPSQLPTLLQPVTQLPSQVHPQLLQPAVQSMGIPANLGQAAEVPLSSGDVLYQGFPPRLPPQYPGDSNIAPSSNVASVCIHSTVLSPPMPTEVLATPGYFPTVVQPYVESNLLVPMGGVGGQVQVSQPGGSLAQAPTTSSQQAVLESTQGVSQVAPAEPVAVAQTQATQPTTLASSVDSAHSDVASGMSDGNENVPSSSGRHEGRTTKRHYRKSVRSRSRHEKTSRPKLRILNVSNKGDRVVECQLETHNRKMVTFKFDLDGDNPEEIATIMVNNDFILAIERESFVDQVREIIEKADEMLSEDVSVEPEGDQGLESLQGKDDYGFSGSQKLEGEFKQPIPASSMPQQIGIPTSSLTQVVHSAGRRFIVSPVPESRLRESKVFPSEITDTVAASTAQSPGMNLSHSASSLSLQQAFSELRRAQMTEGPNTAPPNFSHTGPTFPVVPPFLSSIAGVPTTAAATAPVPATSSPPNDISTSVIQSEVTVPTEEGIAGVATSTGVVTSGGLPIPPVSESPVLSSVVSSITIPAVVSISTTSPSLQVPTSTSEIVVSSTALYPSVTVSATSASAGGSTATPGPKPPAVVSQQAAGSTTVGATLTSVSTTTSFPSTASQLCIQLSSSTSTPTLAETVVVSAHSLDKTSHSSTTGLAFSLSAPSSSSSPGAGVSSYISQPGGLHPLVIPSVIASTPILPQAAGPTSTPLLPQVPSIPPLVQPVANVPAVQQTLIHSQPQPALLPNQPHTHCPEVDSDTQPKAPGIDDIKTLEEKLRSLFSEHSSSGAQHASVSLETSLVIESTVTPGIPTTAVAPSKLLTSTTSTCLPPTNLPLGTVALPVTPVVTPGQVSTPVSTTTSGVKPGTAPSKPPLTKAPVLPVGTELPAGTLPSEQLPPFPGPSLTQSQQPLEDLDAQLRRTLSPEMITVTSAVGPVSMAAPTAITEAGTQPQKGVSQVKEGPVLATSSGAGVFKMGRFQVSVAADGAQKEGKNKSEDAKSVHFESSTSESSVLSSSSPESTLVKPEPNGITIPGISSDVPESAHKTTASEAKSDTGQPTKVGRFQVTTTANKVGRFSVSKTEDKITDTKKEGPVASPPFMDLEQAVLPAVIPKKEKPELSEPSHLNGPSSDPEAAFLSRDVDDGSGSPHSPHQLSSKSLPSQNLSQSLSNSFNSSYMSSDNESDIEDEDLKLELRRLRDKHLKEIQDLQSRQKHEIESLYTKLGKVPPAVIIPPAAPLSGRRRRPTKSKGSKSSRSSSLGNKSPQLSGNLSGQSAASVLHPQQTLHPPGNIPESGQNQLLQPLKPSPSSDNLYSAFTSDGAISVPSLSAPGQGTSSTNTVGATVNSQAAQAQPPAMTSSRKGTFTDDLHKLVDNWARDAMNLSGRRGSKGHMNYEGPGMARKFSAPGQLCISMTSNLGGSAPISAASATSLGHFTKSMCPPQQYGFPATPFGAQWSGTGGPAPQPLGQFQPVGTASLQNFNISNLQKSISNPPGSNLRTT
T18 sequence (O43318 with tags, fused parts or gaps limits assumed): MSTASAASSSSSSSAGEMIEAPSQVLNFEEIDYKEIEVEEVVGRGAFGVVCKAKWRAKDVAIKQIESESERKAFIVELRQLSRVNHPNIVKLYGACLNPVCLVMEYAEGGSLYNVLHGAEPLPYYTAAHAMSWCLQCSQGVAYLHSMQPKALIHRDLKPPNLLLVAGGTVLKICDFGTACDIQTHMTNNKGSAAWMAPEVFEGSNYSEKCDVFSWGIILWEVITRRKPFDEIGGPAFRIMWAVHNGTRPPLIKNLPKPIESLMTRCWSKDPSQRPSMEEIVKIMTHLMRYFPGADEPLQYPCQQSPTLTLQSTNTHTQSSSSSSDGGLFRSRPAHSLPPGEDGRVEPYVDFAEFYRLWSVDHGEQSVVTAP
T11 sequence (O96017 whole entry): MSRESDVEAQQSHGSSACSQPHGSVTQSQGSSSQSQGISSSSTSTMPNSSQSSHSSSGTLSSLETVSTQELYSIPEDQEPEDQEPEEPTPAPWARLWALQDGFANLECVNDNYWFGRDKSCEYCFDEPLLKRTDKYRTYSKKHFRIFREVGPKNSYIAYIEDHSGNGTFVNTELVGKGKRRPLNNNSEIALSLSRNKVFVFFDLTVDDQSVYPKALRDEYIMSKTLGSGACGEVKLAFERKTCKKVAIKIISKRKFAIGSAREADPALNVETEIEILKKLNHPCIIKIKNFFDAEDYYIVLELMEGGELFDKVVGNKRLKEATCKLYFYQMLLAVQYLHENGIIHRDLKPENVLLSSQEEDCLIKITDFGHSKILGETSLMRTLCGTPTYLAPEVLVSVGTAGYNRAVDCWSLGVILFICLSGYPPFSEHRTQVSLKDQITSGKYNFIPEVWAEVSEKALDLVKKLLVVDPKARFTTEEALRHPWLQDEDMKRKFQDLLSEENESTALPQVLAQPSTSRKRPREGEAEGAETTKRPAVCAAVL
T4 sequence (O14965 whole entry): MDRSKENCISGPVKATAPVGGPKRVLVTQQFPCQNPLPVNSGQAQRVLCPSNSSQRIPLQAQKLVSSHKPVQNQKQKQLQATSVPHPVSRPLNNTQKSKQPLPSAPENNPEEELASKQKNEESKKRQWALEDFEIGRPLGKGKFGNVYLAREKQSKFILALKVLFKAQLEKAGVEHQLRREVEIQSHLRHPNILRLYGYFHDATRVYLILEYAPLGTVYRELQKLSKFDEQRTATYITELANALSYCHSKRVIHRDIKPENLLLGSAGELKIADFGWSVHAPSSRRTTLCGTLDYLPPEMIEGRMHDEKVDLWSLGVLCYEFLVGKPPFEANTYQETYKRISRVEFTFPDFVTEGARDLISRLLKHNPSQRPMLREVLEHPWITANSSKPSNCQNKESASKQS
T19 sequence (O14965 whole entry): as above
T19 sequence (Q9ULW0 1-43 partner limits assumed): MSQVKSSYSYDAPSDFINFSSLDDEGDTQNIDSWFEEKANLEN

C[C@@H]1CC[C@H]2C(C)(C)CCC[C@]2(C)c2c1oc1c(C=O)c(O)c(O)cc21 [LG-1, liphagal]
inhibition at 10 µM (TSSK3): 85.6%
inhibition at 10 µM (MST3): 62.7%
inhibition at 10 µM (CaMK1δ): 57.7%
inhibition at 10 µM (AurA): 53.9%
inhibition at 10 µM (CaMK4): 51.4%
inhibition at 10 µM (PIM 1): 50.3%
% Inhibition (MAP3K3_Cascade): 48.8%
inhibition at 10 µM (FER): 42.8%
inhibition at 10 µM (MAP3K5_Cascade): 38%
inhibition at 10 µM (RSK1): 34.3%
inhibition at 10 µM (CDC2/CycB1): 33.7%
inhibition at 10 µM (CHK2): 26.5%
inhibition at 10 µM (MAP3K1_Cascade): 26.4%
inhibition at 10 µM (MLK3_Cascade): 19.5%
inhibition at 10 µM (KIT(V560G)): 17.9%
inhibition at 10 µM (SPHK2): 17.4%
inhibition at 10 µM (WNK1): 17.3%
inhibition at 10 µM (MRCKα): 16%
inhibition at 10 µM (TAK1-TAB1_Cascade): 13.9%
inhibition at 10 µM (AurA/TPX2): 12.2%
inhibition at 10 µM (JNK2): 10.7%
inhibition at 10 µM (RET): 10.6%
inhibition at 10 µM (FTI1): 10.4%
inhibition at 10 µM (SRPK2): 9.7%
inhibition at 10 µM (FGR): 9.3%
inhibition at 10 µM (RON): 7.8%
inhibition at 10 µM (CDK2/CycE1): 6.9%
inhibition at 10 µM (BMX): 6.5%
inhibition at 10 µM (KIT(D816Y)): 6.2%
inhibition at 10 µM (MAP2K7_Cascade): 5.5%
inhibition at 10 µM (AKT3): 3.3%
inhibition at 10 µM (CK1y1): 2.8%
inhibition at 10 µM (EPHA5): 2.3%
inhibition at 10 µM (PKCδ): 1.6%
inhibition at 10 µM (IRAK1): 1.2%
inhibition at 10 µM (EGFR(T790/L858R)): -2.2%
inhibition at 10 µM (PAK5): -2.5%
inhibition at 10 µM (MARK3): -2.9%
inhibition at 10 µM (KKε): -6.3%
inhibition at 10 µM (FGFR2): -8.4%
inhibition at 10 µM (MSK2): -11.7%
inhibition at 10 µM (PKCβ1): -18%
